From patent publication US12251387B2, “Substituted quinoxalines and benzo[c][1,2,5]oxadiazoles as DNA-PK inhibitors” (Vertex Pharmaceuticals Incorporated, priority 2013, dated 2025)
pKi: −log10 of the molar value.

Each molecule was assayed against DNA-PK (Homo sapiens, UniProt P78527) (assay: DNA-PK Inhibition Assay (standard radiometric kinase assay, 33P-ATP, peptide substrate)). Details: radiometric assay, approximately 6 nM DNA-PK, 100 μM ATP, 45 min; fit to competitive tight-binding inhibition; read-out: Ki for the inhibition of DNA-PK.
Assay type: biochemical
Method in brief: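 Radiometric transfer of 33P from ATP (100 μM) to peptide substrate (0.8 mg/mL) by about 6 nM DNA-PK with 10 μg/mL sheared dsDNA, pH 7.5 HEPES/MgCl2, 45 min, phosphoric acid quench, filter capture and scintillation counting. Ki fitted to a competitive tight-binding inhibition model.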

Row | SMILES | pKi
1 | COc1ncccc1N[C@H]1CC[C@@H](Oc2cc(N3CCOCC3)cc3nccnc23)CC1 [Compound 445] | > 7.00
2 | Clc1nc(N[C@H]2CC[C@@H](Oc3cc(N4CCOCC4)cc4nccnc34)CC2)nc2cc[nH]c12 [Compound 514] | > 7.00
3 | O=C(O)c1cccc(N[C@H]2CC[C@@H](Oc3cc(N4CCOCC4)cc4nccnc34)CC2)n1 [Compound 419] | > 7.00
4 | CNC(=O)c1ccnc(N[C@H]2CC[C@@H](Oc3cc(N4CCOCC4)cc4nccnc34)CC2)n1 [Compound 350] | > 7.00
5 | Cc1nccnc1N[C@H]1CC[C@@H](Oc2cc(N3CCOCC3)cc3nccnc23)CC1 [Compound 335] | > 7.00
6 | c1cc2ccoc2c(N[C@H]2CC[C@@H](Oc3cc(N4CCOCC4)cc4nccnc34)CC2)n1 [Compound 470] | > 7.00
7 | Nc1nccc(N[C@H]2CC[C@@H](Oc3cc(N4CCOCC4)cc4nccnc34)CC2)n1 [Compound 397] | > 7.00
8 | Clc1cc2nccn2c(N[C@H]2CC[C@@H](Oc3cc(N4CCOCC4)cc4nccnc34)CC2)n1 [Compound 538] | > 7.00
9 | CC(C)(O)c1ncc(N[C@H]2CC[C@@H](Oc3cc(N4CCOCC4)cc4nccnc34)CC2)cn1 [Compound 341] | > 7.00
10 | CC(C)(C)OC(=O)N1CCC(c2ccnc(N[C@H]3CC[C@@H](Oc4cc(N5CCOCC5)cc5nccnc45)CC3)n2)CC1 [Compound 557] | > 7.00
11 | OCCc1cnc(N[C@H]2CC[C@@H](Oc3cc(N4CCOCC4)cc4nccnc34)CC2)nc1 [Compound 481] | > 7.00
12 | c1cc2ncnn2c(N[C@H]2CC[C@@H](Oc3cc(N4CCOCC4)cc4nccnc34)CC2)n1 [Compound 542] | > 7.00
13 | c1cnc2c(O[C@H]3CC[C@@H](Nc4ncc(OCCCN5CCOCC5)cn4)CC3)cc(N3CCOCC3)cc2n1 [Compound 526] | > 7.00
14 | CC(C)Oc1cc(N[C@H]2CC[C@@H](Oc3cc(N4CCOCC4)cc4nccnc34)CC2)ccn1 [Compound 349] | > 7.00
15 | CN1CCN(Cc2cnc(N[C@H]3CC[C@@H](Oc4cc(N5CCOCC5)cc5nccnc45)CC3)nc2)CC1 [Compound 497] | > 7.00
16 | Cc1cnc2c(O[C@H]3CC[C@@H](Nc4ncc(C5CCN(C)CC5)cn4)CC3)cc(N3CCOCC3)cc2n1 [Compound 543] | > 7.00
17 | COC(=O)c1cc(N[C@H]2CC[C@@H](Oc3cc(N4CCOCC4)cc4nccnc34)CC2)ncc1O [Compound 404] | > 7.00
18 | c1cc(-c2nnco2)nc(N[C@H]2CC[C@@H](Oc3cc(N4CCOCC4)cc4nccnc34)CC2)n1 [Compound 461] | > 7.00
19 | Cc1ccc(N[C@H]2CC[C@@H](Oc3cc(N4CCOCC4)cc4nccnc34)CC2)cn1 [Compound 444] | > 7.00
20 | c1ncc(N[C@H]2CC[C@@H](Oc3cc(N4CCOCC4)cc4nccnc34)CC2)cn1 [Compound 575] | > 7.00
21 | c1nc(CN2CCCCC2)cc(N[C@H]2CC[C@@H](Oc3cc(N4CCOCC4)cc4nccnc34)CC2)n1 [Compound 389] | > 7.00
22 | CC(C)Nc1cnc(N[C@H]2CC[C@@H](Oc3cc(N4CCOCC4)cc4nccnc34)CC2)nc1 [Compound 152] | > 7.00
23 | Cc1cncc(N[C@H]2CC[C@@H](Oc3cc(N4CCOCC4)cc4nccnc34)CC2)c1 [Compound 465] | > 7.00
24 | OCc1ccnc(N[C@H]2CC[C@@H](Oc3cc(N4CCOCC4)cc4nccnc34)CC2)n1 [Compound 457] | > 7.00

Row | SMILES | pKi
25 | FC(F)(F)c1cnc(N[C@H]2CC[C@@H](Oc3cc(N4CCOCC4)cc4nccnc34)CC2)nc1 [Compound 418] | > 7.00
26 | c1cnc2c(O[C@H]3CC[C@@H](Nc4ccc(OCCN5CCCCC5)cn4)CC3)cc(N3CCOCC3)cc2n1 [Compound 640] | > 7.00
27 | [2H]C([2H])([2H])c1nccc(N[C@H]2CC[C@@H](Oc3cc(N4CCOCC4)cc4nccnc34)CC2)n1 [Compound 478] | > 7.00
28 | c1nc2c(c(N[C@H]3CC[C@@H](Oc4cc(N5CCOCC5)cc5nccnc45)CC3)n1)COC2 [Compound 475] | > 7.00
29 | CN1CCN(CCCOc2cnc(N[C@H]3CC[C@@H](Oc4cc(N5CCOCC5)cc5nccnc45)CC3)nc2)CC1 [Compound 508] | > 7.00
30 | COCc1cc(N[C@H]2CC[C@@H](Oc3cc(N4CC5CC(C4)O5)cc4nccnc34)CC2)nc(C)n1 [Compound 309] | > 7.00
31 | c1cnc2c(O[C@H]3CC[C@@H](Nc4ncc(C5CCNC5)cn4)CC3)cc(N3CCOCC3)cc2n1 (some centres unmarked) [Compound 569] | > 7.00
32 | c1cnc2c(O[C@H]3CC[C@@H](Nc4ncc(-c5nnn[nH]5)cn4)CC3)cc(N3CCOCC3)cc2n1 [Compound 460] | > 7.00
33 | Cc1nccc(N(C)[C@H]2CC[C@@H](Oc3cc(N4CCOCC4)cc4nccnc34)CC2)n1 [Compound 399] | > 7.00
34 | Cn1ncc2c(N[C@H]3CC[C@@H](Oc4cc(N5CCOCC5)cc5nccnc45)CC3)ncnc21 [Compound 545] | > 7.00
35 | CCc1ncnc(N[C@H]2CC[C@@H](Oc3cc(C4=CCOCC4)cc4nccnc34)CC2)c1F [Compound 295] | > 7.00
36 | COc1c(N[C@H]2CC[C@@H](Oc3cc(N4CCOCC4)cc4nccnc34)CC2)ncnc1N(C)C [Compound 388] | > 7.00
37 | O=Cc1cnc2cc(N3CCOCC3)cc(O[C@H]3CC[C@@H](Nc4ncccn4)CC3)c2n1 [Compound 620] | > 7.00
38 | c1nc(N[C@H]2CC[C@@H](Oc3cc(N4CCOCC4)cc4nccnc34)CC2)c2c(n1)OCC2 [Compound 479] | > 7.00
39 | COc1cnc(Cl)nc1N[C@H]1CC[C@@H](Oc2cc(N3CCOCC3)cc3nccnc23)CC1 [Compound 401] | > 7.00
40 | CN1CCN(c2cnc(N[C@H]3CC[C@@H](Oc4cc(N5CCOCC5)cc5nccnc45)CC3)nc2)CC1 [Compound 579] | > 7.00
41 | c1cnc(NC[C@H]2C[C@@H](Oc3cc(N4CCOCC4)cc4nccnc34)C2)nc1 [Compound 307] | > 7.00
42 | CC1(C)CC(c2cnc(N[C@H]3CC[C@@H](Oc4cc(N5CCOCC5)cc5nccnc45)CC3)nc2)CC(C)(C)N1 [Compound 550] | > 7.00
43 | c1cnc2c(O[C@H]3CC[C@@H](Nc4ncc(OCCN5CCCC5)cn4)CC3)cc(N3CCOCC3)cc2n1 [Compound 509] | > 7.00
44 | Cc1cc(N[C@H]2CC[C@@H](Oc3cc(N4CCOCC4)cc4nccnc34)CC2)n2ncnc2n1 [Compound 536] | > 7.00
45 | Fc1cccc(N[C@H]2CC[C@@H](Oc3cc(N4CCOCC4)cc4nccnc34)CC2)n1 [Compound 614] | > 7.00
46 | NC(=O)c1csc(N[C@H]2CC[C@@H](Oc3cc(N4CCOCC4)cc4nccnc34)CC2)n1 [Compound 331] | > 7.00
47 | CNc1nc(N[C@H]2CC[C@@H](Oc3cc(N4CCOCC4)cc4nccnc34)CC2)ncc1F [Compound 482] | > 7.00
48 | c1nc2c(c(N[C@H]3CC[C@@H](Oc4cc(N5CCOCC5)cc5nccnc45)CC3)n1)CCC2 [Compound 487] | > 7.00

Row | SMILES | pKi
49 | CC(C)(O)CNc1ncnc(N[C@H]2CC[C@@H](Oc3cc(N4CCOCC4)cc4nccnc34)CC2)c1F [Compound 377] | > 7.00
50 | Cn1ccc(N[C@H]2CC[C@@H](Oc3cc(N4CCOCC4)cc4nccnc34)CC2)cc1=O [Compound 311] | > 7.00
51 | COC(=O)[C@H](CC(C)C)NC(=O)N[C@H]1CC[C@@H](Oc2cc(N3CCOCC3)cc3nccnc23)CC1 [Compound 391] | > 7.00
52 | NC(=O)c1cnc2cc(N3CCOCC3)cc(O[C@H]3CC[C@@H](Nc4ncccn4)CC3)c2n1 [Compound 606] | > 7.00
53 | Cc1cnc(C)c(N[C@H]2CC[C@@H](Oc3cc(N4CCOCC4)cc4nccnc34)CC2)c1 [Compound 441] | > 7.00
54 | CC(C)c1cc(N[C@H]2CC[C@@H](Oc3cc(N4CCOCC4)cc4nccnc34)CC2)ncn1 [Compound 652] | > 7.00
55 | c1cc(N[C@H]2CC[C@@H](Oc3cc(N4CCOCC4)cc4nccnc34)CC2)nc(CN2CCOCC2)n1 [Compound 503] | > 7.00
56 | CN1Cc2c(N[C@H]3CC[C@@H](Oc4cc(N5CCOCC5)cc5nccnc45)CC3)cccc2C1=O [Compound 340] | > 7.00
57 | Cc1cnc(N[C@H]2CC[C@@H](Oc3cc(N4CCOCC4)cc4nccnc34)CC2)c(C)c1 [Compound 595] | > 7.00
58 | CN1CCN(c2nccc(N[C@H]3CC[C@@H](Oc4cc(N5CCOCC5)cc5nccnc45)CC3)n2)CC1 [Compound 535] | > 7.00
59 | Cc1nc(N[C@H]2CC[C@@H](Oc3cc(N4CCOCC4)cc4nccnc34)CC2)cc(N(C)C)n1 [Compound 602] | > 7.00
60 | Clc1cncc(N[C@H]2CC[C@@H](Oc3cc(N4CCOCC4)cc4nccnc34)CC2)n1 [Compound 374] | > 7.00
61 | CC(C)(O)c1ccc(N[C@H]2CC[C@@H](Oc3cc(N4CCOCC4)cc4nccnc34)CC2)nc1 [Compound 281] | > 7.00
62 | O=C1Cc2cnc(N[C@H]3CC[C@@H](Oc4cc(N5CCOCC5)cc5nccnc45)CC3)nc2N1 [Compound 552] | > 7.00
63 | Fc1c(NC2CCOC2)ncnc1N[C@H]1CC[C@@H](Oc2cc(N3CCOCC3)cc3nccnc23)CC1 (some centres unmarked) [Compound 379] | > 7.00
64 | CN1CCC(NC(=O)N[C@H]2CC[C@@H](Oc3cc(N4CCOCC4)cc4nccnc34)CC2)CC1 [Compound 363] | > 7.00
65 | FC(F)(F)c1cnc(N[C@H]2CC[C@@H](Oc3cc(N4CCOCC4)cc4nccnc34)CC2)cn1 [Compound 366] | > 7.00
66 | Fc1cncnc1N[C@H]1CC[C@@H](Oc2cc(N3CCOCC3)cc3nccnc23)CC1 [Compound 531] | > 7.00
67 | CN(C)Cc1ccnc(N[C@H]2CC[C@@H](Oc3cc(N4CCOCC4)cc4nccnc34)CC2)n1 [Compound 483] | > 7.00
68 | c1cc(N2CCOCC2)nc(N[C@H]2CC[C@@H](Oc3cc(N4CCOCC4)cc4nccnc34)CC2)n1 [Compound 548] | > 7.00
69 | c1cnc2c(O[C@H]3CC[C@@H](Nc4ncc(OCCN5CCCCC5)cn4)CC3)cc(N3CCOCC3)cc2n1 [Compound 613] | > 7.00
70 | Cc1cc(C)n2nc(N[C@H]3CC[C@@H](Oc4cc(N5CCOCC5)cc5nccnc45)CC3)nc2n1 [Compound 299] | > 7.00
71 | c1cc(C2CCNCC2)nc(N[C@H]2CC[C@@H](Oc3cc(N4CCOCC4)cc4nccnc34)CC2)n1 [Compound 551] | > 7.00
